According to paper PMC12030497, “Plasma Protein Binding, Biostability, Metabolite Profiling, and CYP450 Phenotype of TPB15 Across Different Species: A Novel Smoothened Inhibitor for TNBC Therapy” (Pharmaceutics, 2025):
Where “and” joins values, the source holds several entries; their conditions need not be identical. Equal values may be shown once.

Columns and labels:
CYP2A6 = molecular target: T1, CYP2A6 (Homo sapiens, UniProt P11509); assay: TPB15 metabolism in human liver microsomes with CYP2A6 inhibitor; format: in vitro ADME; conditions: inhibition of TPB15 metabolism, HLM, 90 min, Coumarin 25 μM (CYP2A6)
T1 construct: tissue Jiangsu Kejing Bio-Pharmaceutical Co., Ltd; host or cells: human liver microsomes
T1 sequence (P11509 1-494): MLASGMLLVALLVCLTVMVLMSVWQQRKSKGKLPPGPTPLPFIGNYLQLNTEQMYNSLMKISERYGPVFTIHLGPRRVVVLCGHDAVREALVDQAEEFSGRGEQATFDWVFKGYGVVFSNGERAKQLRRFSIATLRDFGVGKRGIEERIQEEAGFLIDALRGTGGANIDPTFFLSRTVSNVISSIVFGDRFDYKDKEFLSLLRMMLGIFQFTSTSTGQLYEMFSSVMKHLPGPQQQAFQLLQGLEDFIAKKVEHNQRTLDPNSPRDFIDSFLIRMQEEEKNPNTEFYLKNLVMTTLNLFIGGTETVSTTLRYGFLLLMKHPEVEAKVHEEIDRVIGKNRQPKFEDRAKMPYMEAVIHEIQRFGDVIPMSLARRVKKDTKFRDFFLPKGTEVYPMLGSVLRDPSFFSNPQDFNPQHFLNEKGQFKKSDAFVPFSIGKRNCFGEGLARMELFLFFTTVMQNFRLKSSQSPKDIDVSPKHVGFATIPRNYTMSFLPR
Protocol: (§1) The specific inhibitors of P450 were employed to evaluate the metabolic phenotype of TPB15, and the metabolic enzymes corresponding to each inhibitor and the system concentration are shown in Table 2. The specific procedure was as follows: a total of 0.5 μL of the substrate TPB15 and 0.5 μL of each specific inhibitor were mixed with 449 μL of human liver microsomes, and the mixture was incubated at 37 °C for 10 min. Subsequently, 50 μL of NADPH with a concentration of 10 mM in PBS were introduced to initiate the reaction. After 90 min, 50 μL of the reaction mixture were transferred to a 150 μL ice-cold methanol solution containing an internal standard to terminate the reaction. The mixture was vortexed for 2 min and then centrifuged at 4 °C at 14,800 rpm for 10 min. A volume of 130 μL of the supernatant was then transferred to a new EP tube, which was centrifuged again at 4 °C at 14,800 rpm for another 10 min. Finally, 5 μL of the supernatant were injected for the determination of substrate TPB15 concentration. Three parallel samples were prepared for each time point. The experiment also included a positive control group and a negative control group. In the positive control group, substrate TPB15 was incubated with human liver microsomes for 90 min without the addition of inhibitors.

CYP2C8 = molecular target: T2, CYP2C8 (Homo sapiens, UniProt P10632); assay: TPB15 metabolism in human liver microsomes with CYP2C8 inhibitor; format: in vitro ADME; conditions: inhibition of TPB15 metabolism, HLM, 90 min, Quercetin 20 μM (CYP2C8)
T2 construct: tissue Jiangsu Kejing Bio-Pharmaceutical Co., Ltd; host or cells: human liver microsomes
T2 sequence (P10632 1-490): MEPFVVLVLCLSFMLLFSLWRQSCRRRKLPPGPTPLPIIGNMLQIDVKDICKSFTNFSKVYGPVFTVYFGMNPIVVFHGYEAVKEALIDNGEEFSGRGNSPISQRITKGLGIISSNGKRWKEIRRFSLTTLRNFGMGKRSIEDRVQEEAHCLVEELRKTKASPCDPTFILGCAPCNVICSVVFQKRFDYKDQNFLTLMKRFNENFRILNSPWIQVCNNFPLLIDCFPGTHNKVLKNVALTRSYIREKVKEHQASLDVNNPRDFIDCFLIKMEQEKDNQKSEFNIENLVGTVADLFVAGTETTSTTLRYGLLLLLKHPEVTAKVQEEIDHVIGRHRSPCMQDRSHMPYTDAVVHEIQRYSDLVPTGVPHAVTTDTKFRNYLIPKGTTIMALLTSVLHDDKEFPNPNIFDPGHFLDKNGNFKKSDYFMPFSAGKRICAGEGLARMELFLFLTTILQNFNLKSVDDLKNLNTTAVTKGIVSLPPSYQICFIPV
Protocol: Three parallel samples were prepared for each time point.

CYP2C9 = CYP2C9 (Homo sapiens, UniProt P11712); conditions: inhibition of TPB15 metabolism, HLM, 90 min, Sulfaphenazole 20 μM (CYP2C9)
Protocol: as §1

[1] = system: CYP450 enzymes in human liver microsomes; assay: Metabolic enzyme phenotype of TPB15 in human liver microsomes with selective CYP450 inhibitors; format: in vitro ADME; conditions: 90 min
Protocol: The specific procedure was as follows: a total of 0.5 μL of the substrate TPB15 and 0.5 μL of each specific inhibitor were mixed with 449 μL of human liver microsomes, and the mixture was incubated at 37 °C for 10 min. Subsequently, 50 μL of NADPH with a concentration of 10 mM in PBS were introduced to initiate the reaction. After 90 min, 50 μL of the reaction mixture were transferred to a 150 μL ice-cold methanol solution containing an internal standard to terminate the reaction. The mixture was vortexed for 2 min and then centrifuged at 4 °C at 14,800 rpm for 10 min. A volume of 130 μL of the supernatant was then transferred to a new EP tube, which was centrifuged again at 4 °C at 14,800 rpm for another 10 min. Finally, 5 μL of the supernatant were injected for the determination of substrate TPB15 concentration. Three parallel samples were prepared for each time point. The experiment also included a positive control group and a negative control group. In the positive control group, substrate TPB15 was incubated with human liver microsomes for 90 min without the addition of inhibitors. In the negative control group, the substrate TPB15 was incubated for 90 min without inhibitors, with human liver microsomes replaced by an equal volume of phosphate-buffered saline (PBS). The metabolic rate of TPB15 in human liver microsomes was represented by the elimination rate of the substrate TPB15.

[2] = Metabolic stability in dog liver microsomes (DLM); format: in vitro ADME, beagle dog; conditions: DLM; for Concentration (ng/mL) of testosterone, Mean: positive control substrate
Protocol: (§2) A total of 450 μL liver microsomes from mice, rat, dog, monkey, and human were spiked with 0.5 μL of TPB15 solution and pre-incubated in a water bath at 37 °C for 10 min. Following this, 50 μL of NADPH were added to initiate the reaction. The concentrations of each substance in the incubation system are detailed in Table 1. After initiating the metabolic reaction, 50 μL aliquots were removed at incubation times of 0, 5, 15, 30, 45, 60, and 90 min and transferred to 150 μL of icy methanol solution containing the internal standard to terminate the reaction. The mixtures were swirled for 2 min and then centrifuged at 14,800 rpm at 4 °C for 10 min. […] Three samples were prepared in parallel at each time point. Additionally, both a positive control group and a blank control group were established. In the positive control group, substrate testosterone was incubated with liver microsomes from mice, rat, dog, monkey, and human. The concentrations of substrate testosterone were measured at 0 and 90 min, and the changes in concentration before and after incubation were compared to confirm the activity of the liver microsomes. The blank control group included one drug-containing inactivated liver microsome sample for each species. The metabolic stability parameters, including in vitro elimination half-life (T1/2) and in vitro intrinsic clearance rate (CLint), were calculated based on this graph using the following formulas: in vitro elimination half-life (T1/2) = −0.693/k and in vitro intrinsic clearance rate (CLint) = (0.693 × incubation medium (mL))/(liver microsomes (mg) × T1/2).

[3] = Metabolic stability in human liver microsomes (HLM); format: in vitro ADME; conditions: HLM; for Concentration (ng/mL) of testosterone, Mean: positive control substrate
Protocol: as §2

[4] = Metabolic stability in rat liver microsomes (RLM); format: in vitro ADME, Sprague-Dawley rat; conditions: RLM; for Concentration (ng/mL) of testosterone, Mean: positive control substrate
Protocol: as §2

[5] = Metabolic stability in monkey liver microsomes (MLM); format: in vitro ADME, crab-eating monkey; conditions: MLM; for Concentration (ng/mL) of testosterone, Mean: positive control substrate
Protocol: as §2

[6] = Metabolic stability in mouse liver microsomes (MouLM); format: in vitro ADME, KM mice; conditions: MouLM, 0 min
Protocol: as §2

Sequence of CYP2C9 (P11712 whole entry): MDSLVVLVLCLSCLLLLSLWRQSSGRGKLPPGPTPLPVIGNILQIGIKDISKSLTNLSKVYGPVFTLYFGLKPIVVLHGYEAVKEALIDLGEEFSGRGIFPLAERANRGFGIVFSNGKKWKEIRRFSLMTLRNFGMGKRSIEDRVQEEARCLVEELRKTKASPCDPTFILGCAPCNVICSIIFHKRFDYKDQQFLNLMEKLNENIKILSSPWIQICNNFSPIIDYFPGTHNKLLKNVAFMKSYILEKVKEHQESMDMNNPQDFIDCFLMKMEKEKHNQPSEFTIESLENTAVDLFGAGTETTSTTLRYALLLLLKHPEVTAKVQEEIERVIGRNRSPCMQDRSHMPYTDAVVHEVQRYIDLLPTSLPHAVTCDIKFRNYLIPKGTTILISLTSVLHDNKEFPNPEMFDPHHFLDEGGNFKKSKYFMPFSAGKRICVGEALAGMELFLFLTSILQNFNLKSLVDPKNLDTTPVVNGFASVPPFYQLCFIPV

## O=c1ccc2ccccc2o1 [Coumarin]
CYP2A6
  Inhibitor Rate (%): 6.60%

## O=c1c(O)c(-c2ccc(O)c(O)c2)oc2cc(O)cc(O)c12 [Quercetin]
CYP2C8
  Inhibitor Rate (%): 8.63%

## Nc1ccc(S(=O)(=O)Nc2ccnn2-c2ccccc2)cc1 [Sulfaphenazole, reference compound]
CYP2C9
  Inhibitor Rate (%): 81.22%
[1]
  effect of selective CYP450 inhibitor on TPB15 metabolism (significance vs positive control group): significantly inhibited

## C[C@]12CC[C@H]3[C@@H](CCC4=CC(=O)CC[C@@]43C)[C@@H]1CC[C@@H]2O [testosterone]
[2]; 0 min
  Concentration (ng/mL) of testosterone, single samples (serial number 1-3): 300 ng/mL and 364 ng/mL and 375 ng/mL
  Concentration (ng/mL) of testosterone, Mean: 346.3 ng/mL
[2]; 90 min
  Concentration (ng/mL) of testosterone, Mean: 17.5 ng/mL
[3]; 0 min
  Concentration (ng/mL) of testosterone, single samples (serial number 1-3): 273 ng/mL and 379 ng/mL and 308 ng/mL
  Concentration (ng/mL) of testosterone, Mean: 320.0 ng/mL
[3]; 90 min
  Concentration (ng/mL) of testosterone, single samples (serial number 1-3): 19.2 ng/mL and 22.9 ng/mL and 34.7 ng/mL
  Concentration (ng/mL) of testosterone, Mean: 25.6 ng/mL
[4]; 0 min
  Concentration (ng/mL) of testosterone, single samples (serial number 1-3): 331 ng/mL and 303 ng/mL
  Concentration (ng/mL) of testosterone, Mean: 321.7 ng/mL
[4]; 90 min
  Concentration (ng/mL) of testosterone, Mean: 22.6 ng/mL
[5]; 0 min
  Concentration (ng/mL) of testosterone, single samples (serial number 1-3): 293 ng/mL and 385 ng/mL and 301 ng/mL
  Concentration (ng/mL) of testosterone, Mean: 326.4 ng/mL
[5]; 90 min
  Concentration (ng/mL) of testosterone, single samples (serial number 1-3): 29.2 ng/mL and 39.7 ng/mL and 38.2 ng/mL
  Concentration (ng/mL) of testosterone, Mean: 35.7 ng/mL
[6]
  Concentration (ng/mL) of testosterone, single samples (serial number 1-3): 400 ng/mL and 314 ng/mL and 356 ng/mL
[6]; positive control substrate
  Concentration (ng/mL) of testosterone, Mean: 356.7 ng/mL
